Test results taken from patent publication US20260365670A1, “EGFR INHIBITORS AND USES THEREOF” (DIZAL (JIANGSU) PHARMACEUTICAL CO., LTD., priority 2022, published 2026).
Read-outs that look alike come from different tables or passages of the source.

Columns and labels:
A-431 = assay: Cell proliferation GI50, A-431 cells (Table 6); assay type: cell-based
[1] = target: T1, EGFR[T790M/C797S/d746-750] (Homo sapiens, UniProt P00533, C797S/DEL746-750/T790M); assay: Inhibition of EGFR[T790M/C797S/d746-750] biochemical enzymatic activity (HTRF); conditions: EGFR T790M-C797S-Del19, 1 mM ATP, 1 h, room temperature, read-out: IC50 (nM) @T790M - C797S - Del19
T1 construct: purchased Carna Bio
In short: (§1)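 Phosphorylation of TK Substrate-biotin (1 μM) was measured at 1 mM ATP over a 1 h room-temperature incubation with serially varied compound. Detection was by HTRF ratio and analysis by 4PL fit to IC50.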

[2] = tested on: Ba/F3 cells expressing EGFR mutations; assay: Cell proliferation assay, Ba/F3 cells expressing EGFR mutations (CellTiter-Glo, 72 hours); assay type: cell-based; conditions: CellTiter-Glo
In short: (§2)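 GI50 is the concentration giving 50% proliferation inhibition. Growth for this was normalised to a baseline viability reading taken when compound was added, and to DMSO wells. PC-9 (500 cells/well) and mutant-EGFR Ba/F3 (5000 cells/well) are treated after overnight seeding in RPMI1640-based medium.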

EGFR (d746-750 C797S) = target: T2, EGFR (d746-750 C797S) (Homo sapiens, UniProt P00533, C797S/DEL746-750); assay: Inhibition of EGFR (d746-750 C797S) biochemical enzymatic activity (HTRF); conditions: EGFR Del19-C797S, 1 mM ATP, 1 h, room temperature, read-out: IC50 (nM) @Del19-C797S
T2 construct: purchased signalchem
In short: as §1

EGFR Exon19Del = target: T3, EGFR Exon19Del (Homo sapiens, UniProt P00533, DEL746-750); assay: Inhibition of EGFR Exon19Del biochemical enzymatic activity (HTRF); conditions: EGFR Del19, 1 mM ATP, 1 h, room temperature, read-out: IC50 @Del19
T3 construct: purchased Carna Bio
In short: as §1

EGFR[T790M/C797S/L858R] = target: T4, EGFR[T790M/C797S/L858R] (Homo sapiens, UniProt P00533, C797S/L858R/T790M); assay: Inhibition of EGFR[T790M/C797S/L858R] biochemical enzymatic activity (HTRF); conditions: EGFR T790M-C797S-L858R, 1 mM ATP, 1 h, room temperature, read-out: IC50 (nM) @T790M- C797S - L858R
T4 construct: purchased Carna Bio
In short: as §1

EGFR Exon19Del/T790M = target: T5, EGFR Exon19Del/T790M (Homo sapiens, UniProt P00533, DEL746-750/T790M); assay: Inhibition of EGFR Exon19Del/T790M biochemical enzymatic activity (HTRF); conditions: EGFR Del19-T790M, 1 mM ATP, 1 h, room temperature, read-out: IC50 (nM) @Del19-T790M
T5 construct: purchased Carna Bio
In short: as §1

EGFR wild type = target: T6, EGFR wild type (Homo sapiens, UniProt P00533); assay: Inhibition of EGFR wild type biochemical enzymatic activity (HTRF); conditions: EGFR WT, 1 mM ATP, 1 h, room temperature, read-out: IC50 (nM) @WT
T6 construct: purchased Carna Bio
In short: as §1

EGFR L858R = target: T7, EGFR L858R (Homo sapiens, UniProt P00533, L858R); assay: Inhibition of EGFR L858R biochemical enzymatic activity (HTRF); conditions: 1 mM ATP, 1 h, room temperature, read-out: IC50 (nM) @L858R
T7 construct: purchased Carna Bio
In short: as §1

EGFR L858R/T790M = target: T8, EGFR L858R/T790M (Homo sapiens, UniProt P00533, L858R/T790M); assay: Inhibition of EGFR L858R/T790M biochemical enzymatic activity (HTRF); conditions: EGFR L858R-T790M, 1 mM ATP, 1 h, room temperature, read-out: IC50 (nM) @L858R-T790M
T8 construct: purchased Carna Bio
In short: as §1

EGFR (C797S L858R) = target: T9, EGFR (C797S L858R) (Homo sapiens, UniProt P00533, C797S/L858R); assay: Inhibition of EGFR (C797S L858R) biochemical enzymatic activity (HTRF); conditions: EGFR L858-C797S, 1 mM ATP, 1 h, room temperature, read-out: IC50 (nM) @L858-C797S
T9 construct: purchased signalchem
In short: as §1

PC-9 = assay: Cell proliferation assay, PC-9 cells (CellTiter-Glo, 72 hours); assay type: cell-based; conditions: PC9 cells, CellTiter-Glo, read-out: PC9 GI50
In short: as §2

[3] = Homo sapiens, A-431, A-431 cells
[4] = Mus musculus, BaF3, 72 h, BaF3 cells, EGFR DEL19-C797S, read-out: DEL19-C797S/BaF3 GI50
[5] = Mus musculus, BaF3, 72 h, BaF3 cells, EGFR DEL19-T790-C797S, read-out: DEL19-T790-C797S/BaF3 GI50
[6] = Mus musculus, BaF3, 72 h, BaF3 cells, EGFR L858R, read-out: L858R/BaF3 GI50
[7] = Mus musculus, BaF3, 72 h, BaF3 cells, EGFR L858R-C797S, read-out: L858R-C797S/BaF3 GI50
[8] = Mus musculus, BaF3, 72 h, BaF3 cells, EGFR L858R-T790-C797S, read-out: L858R-T790-C797S/BaF3 GI50
[9] = Mus musculus, BaF3, 72 h, BaF3 cells, EGFR L858R-T790M, read-out: L858R-T790M/BaF3 GI50
[10] = Mus musculus, BaF3, 72 h, EGFR DEL19-T790M, read-out: DEL19-T790M GI50
[11] = BaF3 cells, EGFR DEL19-C797S, read-out: DEL19-C797S/BaF3 GI50
[12] = BaF3 cells, EGFR DEL19-T790-C797S, read-out: DEL19-T790-C797S/BaF3 GI50
[13] = BaF3 cells, EGFR L858R, read-out: L858R/BaF3 GI50
[14] = BaF3 cells, EGFR L858R-C797S, read-out: L858R-C797S/BaF3 GI50
[15] = BaF3 cells, EGFR L858R-T790-C797S, read-out: L858R-T790-C797S/BaF3 GI50
[16] = BaF3 cells, EGFR L858R-T790M, read-out: L858R-T790M/BaF3 GI50
[17] = EGFR DEL19-T790M, read-out: DEL19-T790M GI50

T8 sequence (P00533 25-1210 T790M/L858R): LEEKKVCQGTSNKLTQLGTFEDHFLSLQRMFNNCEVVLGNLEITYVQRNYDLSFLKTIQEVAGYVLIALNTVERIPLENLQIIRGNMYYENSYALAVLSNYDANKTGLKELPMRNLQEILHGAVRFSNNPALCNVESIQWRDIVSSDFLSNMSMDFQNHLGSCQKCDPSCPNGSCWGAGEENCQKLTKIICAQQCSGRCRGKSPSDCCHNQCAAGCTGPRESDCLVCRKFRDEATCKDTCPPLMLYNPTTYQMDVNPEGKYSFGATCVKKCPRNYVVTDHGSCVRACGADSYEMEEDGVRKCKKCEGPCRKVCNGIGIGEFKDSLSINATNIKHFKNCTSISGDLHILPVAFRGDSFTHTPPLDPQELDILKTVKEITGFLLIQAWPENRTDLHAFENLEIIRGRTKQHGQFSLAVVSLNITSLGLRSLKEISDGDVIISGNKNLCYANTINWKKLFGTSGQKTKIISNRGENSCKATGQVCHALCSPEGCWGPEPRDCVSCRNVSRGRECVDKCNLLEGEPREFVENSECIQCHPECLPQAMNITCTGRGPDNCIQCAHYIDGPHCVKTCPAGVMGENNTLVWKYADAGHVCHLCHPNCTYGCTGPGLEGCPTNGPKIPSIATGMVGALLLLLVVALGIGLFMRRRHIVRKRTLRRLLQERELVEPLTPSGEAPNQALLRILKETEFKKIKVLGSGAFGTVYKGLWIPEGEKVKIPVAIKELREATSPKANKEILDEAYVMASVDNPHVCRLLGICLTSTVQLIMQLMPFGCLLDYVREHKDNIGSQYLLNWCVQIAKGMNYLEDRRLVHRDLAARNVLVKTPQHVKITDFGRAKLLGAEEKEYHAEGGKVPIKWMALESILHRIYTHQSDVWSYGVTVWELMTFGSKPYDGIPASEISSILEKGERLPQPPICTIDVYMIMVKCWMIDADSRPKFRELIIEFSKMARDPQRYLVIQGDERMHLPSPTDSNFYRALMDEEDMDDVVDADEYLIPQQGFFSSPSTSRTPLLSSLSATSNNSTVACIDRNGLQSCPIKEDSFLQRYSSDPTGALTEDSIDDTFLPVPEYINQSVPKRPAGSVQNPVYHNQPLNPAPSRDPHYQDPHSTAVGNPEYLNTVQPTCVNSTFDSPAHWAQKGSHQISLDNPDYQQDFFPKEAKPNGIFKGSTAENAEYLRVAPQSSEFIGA
T3 sequence (P00533 with tags, fused parts or gaps DEL746-750 limits assumed): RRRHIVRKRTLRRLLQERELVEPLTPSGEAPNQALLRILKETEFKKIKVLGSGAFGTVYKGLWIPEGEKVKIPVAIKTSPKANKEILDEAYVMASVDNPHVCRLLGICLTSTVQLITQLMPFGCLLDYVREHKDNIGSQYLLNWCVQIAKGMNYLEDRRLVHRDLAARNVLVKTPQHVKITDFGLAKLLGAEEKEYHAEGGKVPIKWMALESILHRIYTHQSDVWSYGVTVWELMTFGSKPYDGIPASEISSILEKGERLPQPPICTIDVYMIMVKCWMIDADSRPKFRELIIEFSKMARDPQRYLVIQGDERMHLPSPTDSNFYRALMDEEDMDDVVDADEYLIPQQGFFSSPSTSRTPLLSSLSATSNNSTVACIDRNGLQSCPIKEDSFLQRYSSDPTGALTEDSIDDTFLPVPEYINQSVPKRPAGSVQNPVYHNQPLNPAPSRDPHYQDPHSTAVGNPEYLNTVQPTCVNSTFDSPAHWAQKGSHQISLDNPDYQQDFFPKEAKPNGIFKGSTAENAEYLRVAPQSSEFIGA
T4 sequence (P00533 25-1210 T790M/C797S/L858R): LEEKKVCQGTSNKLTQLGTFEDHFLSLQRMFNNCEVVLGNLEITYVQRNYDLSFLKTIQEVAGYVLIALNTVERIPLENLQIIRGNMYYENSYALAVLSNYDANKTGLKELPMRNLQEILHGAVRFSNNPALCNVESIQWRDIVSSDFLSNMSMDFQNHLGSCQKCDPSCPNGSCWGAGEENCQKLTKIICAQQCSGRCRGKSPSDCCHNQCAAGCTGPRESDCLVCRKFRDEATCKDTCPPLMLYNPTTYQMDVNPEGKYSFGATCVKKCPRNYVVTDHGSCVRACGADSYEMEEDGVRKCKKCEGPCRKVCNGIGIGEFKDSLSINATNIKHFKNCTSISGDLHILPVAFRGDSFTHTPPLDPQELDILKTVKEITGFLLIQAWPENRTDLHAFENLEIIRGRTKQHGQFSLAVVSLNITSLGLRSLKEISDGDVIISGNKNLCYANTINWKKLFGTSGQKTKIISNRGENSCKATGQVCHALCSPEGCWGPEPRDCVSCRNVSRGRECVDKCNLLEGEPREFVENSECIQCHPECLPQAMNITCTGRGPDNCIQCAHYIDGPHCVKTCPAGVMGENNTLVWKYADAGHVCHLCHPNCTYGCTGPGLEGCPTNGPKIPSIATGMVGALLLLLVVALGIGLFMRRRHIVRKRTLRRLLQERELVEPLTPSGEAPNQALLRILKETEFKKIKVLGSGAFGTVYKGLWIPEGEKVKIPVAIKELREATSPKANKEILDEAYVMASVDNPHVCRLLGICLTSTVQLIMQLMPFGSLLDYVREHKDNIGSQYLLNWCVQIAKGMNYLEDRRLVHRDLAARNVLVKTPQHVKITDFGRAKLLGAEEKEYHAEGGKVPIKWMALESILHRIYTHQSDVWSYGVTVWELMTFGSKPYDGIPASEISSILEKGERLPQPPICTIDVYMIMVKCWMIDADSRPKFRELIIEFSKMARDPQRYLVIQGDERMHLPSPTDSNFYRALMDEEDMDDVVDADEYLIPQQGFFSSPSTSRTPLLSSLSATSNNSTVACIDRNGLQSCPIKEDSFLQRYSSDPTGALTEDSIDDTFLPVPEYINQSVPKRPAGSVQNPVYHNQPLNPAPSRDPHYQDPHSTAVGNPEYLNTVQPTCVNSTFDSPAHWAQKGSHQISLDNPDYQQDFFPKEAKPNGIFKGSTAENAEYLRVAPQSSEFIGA
T9 sequence (P00533 25-1210 C797S/L858R): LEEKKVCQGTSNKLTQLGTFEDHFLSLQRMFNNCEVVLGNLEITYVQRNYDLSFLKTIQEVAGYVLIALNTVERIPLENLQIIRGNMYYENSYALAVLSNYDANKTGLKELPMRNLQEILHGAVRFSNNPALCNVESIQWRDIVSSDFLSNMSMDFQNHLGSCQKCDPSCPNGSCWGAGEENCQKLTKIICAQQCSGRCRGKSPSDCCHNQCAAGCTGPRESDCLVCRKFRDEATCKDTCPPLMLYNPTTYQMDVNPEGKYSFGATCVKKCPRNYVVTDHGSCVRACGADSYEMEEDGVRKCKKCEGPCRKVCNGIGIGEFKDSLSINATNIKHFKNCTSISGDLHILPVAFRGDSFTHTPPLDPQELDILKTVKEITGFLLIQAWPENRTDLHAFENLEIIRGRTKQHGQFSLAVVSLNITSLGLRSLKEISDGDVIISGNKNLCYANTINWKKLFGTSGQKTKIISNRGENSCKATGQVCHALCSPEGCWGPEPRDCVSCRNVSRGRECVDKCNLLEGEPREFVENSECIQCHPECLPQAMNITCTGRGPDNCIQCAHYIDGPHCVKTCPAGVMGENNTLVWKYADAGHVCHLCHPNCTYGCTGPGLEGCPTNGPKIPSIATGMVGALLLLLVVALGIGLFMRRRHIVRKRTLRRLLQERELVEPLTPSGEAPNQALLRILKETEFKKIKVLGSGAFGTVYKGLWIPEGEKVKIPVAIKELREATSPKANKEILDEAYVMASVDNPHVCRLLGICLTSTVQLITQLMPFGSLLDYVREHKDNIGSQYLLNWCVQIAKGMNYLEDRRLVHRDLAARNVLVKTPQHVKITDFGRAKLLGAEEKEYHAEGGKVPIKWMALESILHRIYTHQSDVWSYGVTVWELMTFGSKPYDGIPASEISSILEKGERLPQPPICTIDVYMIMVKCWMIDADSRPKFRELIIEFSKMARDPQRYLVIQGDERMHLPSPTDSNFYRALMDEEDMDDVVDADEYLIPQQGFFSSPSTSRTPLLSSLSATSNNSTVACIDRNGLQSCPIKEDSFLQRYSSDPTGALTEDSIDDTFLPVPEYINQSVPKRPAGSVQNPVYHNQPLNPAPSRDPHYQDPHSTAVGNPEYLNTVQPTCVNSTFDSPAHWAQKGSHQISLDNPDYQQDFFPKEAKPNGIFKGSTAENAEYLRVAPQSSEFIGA
T1 sequence (P00533 with tags, fused parts or gaps DEL746-750/T790M/C797S limits assumed): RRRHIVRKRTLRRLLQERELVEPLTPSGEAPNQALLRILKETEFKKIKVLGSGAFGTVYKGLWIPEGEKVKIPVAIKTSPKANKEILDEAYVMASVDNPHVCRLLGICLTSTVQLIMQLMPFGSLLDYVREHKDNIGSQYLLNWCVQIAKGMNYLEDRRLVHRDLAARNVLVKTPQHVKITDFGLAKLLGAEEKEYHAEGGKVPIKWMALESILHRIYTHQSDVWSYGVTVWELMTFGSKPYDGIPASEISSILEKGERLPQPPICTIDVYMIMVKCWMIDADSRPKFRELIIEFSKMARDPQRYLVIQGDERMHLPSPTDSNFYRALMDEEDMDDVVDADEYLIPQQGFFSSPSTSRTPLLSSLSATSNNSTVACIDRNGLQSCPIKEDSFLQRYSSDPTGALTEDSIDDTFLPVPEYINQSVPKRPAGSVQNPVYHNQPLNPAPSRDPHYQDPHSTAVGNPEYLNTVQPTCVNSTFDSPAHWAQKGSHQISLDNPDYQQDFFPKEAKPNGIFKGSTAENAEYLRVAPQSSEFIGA

| SMILES | GI50 (A-431; [3]) | IC50 [1] | GI50 [2, 4] | GI50 [2, 5] | GI50 [2, 6] | GI50 [2, 7] | GI50 [2, 8] | GI50 [2, 9] | GI50 [2, 10] | IC50 (EGFR (d746-750 C797S)) | IC50 (EGFR Exon19Del) | IC50 (EGFR[T790M/C797S/L858R]) | IC50 (EGFR Exon19Del/T790M) | IC50 (EGFR wild type) | IC50 (EGFR L858R) | IC50 (EGFR L858R/T790M) | IC50 (EGFR (C797S L858R)) | GI50 (PC-9; Homo sapiens, PC-9, 72 h) | GI50 (A-431; A-431 cells) | GI50 [2, 11] | also measured |
| --- | --- | --- | --- | --- | --- | --- | --- | --- | --- | --- | --- | --- | --- | --- | --- | --- | --- | --- | --- | --- | --- |
| CN1CCN(c2ccc3nc4n(c3c2)CCN(CC(F)(F)F)CCOc2c(cnn2C2CC2)-c2cc(cn(C)c2=O)C(=O)N4)CC1 [Example A2, 5-Cyclopropyl-26-methyl-16-(4-methylpiperazin-1-yl)-10-(2,2,2-trifluoroethyl)-7-oxa-4,5,10,13,20,22,26-heptaazapentacyclo[22.3.1.0^{2,6}.0^{13,21}.0^{14,19}]octacosa-1(28),2(6),3,14,16,18,20,24-octaene-23,27-dione] | 1010 nM | 3.7 nM | 5.8 nM | 30 nM | 3.7 nM | 5.2 nM | 6.7 nM | 5.5 nM | 33 nM | 3.7 nM | 3.5 nM | 3.4 nM | 4.8 nM | 52 nM | 5 nM | 4.3 nM | 4.1 nM | 80 nM | – | – | – |
| COCCN(C)c1ccc2nc3n(c2c1)C12CCC(CN(CCOc4c(cnn4C)-c4cc(cn(C)c4=O)C(=O)N3)C1)C2 (single isomer, unassigned) [Example A90B] | – | 4.9 nM | – | – | – | – | – | – | – | 3.5 nM | 6.3 nM | 9.3 nM | 5.9 nM | 825 nM | 54 nM | 10 nM | 31 nM | – | 3160 nM | 0.75 nM | GI50 [2, 12]: 3.9 nM; GI50 [2, 13]: 4.6 nM; GI50 [2, 14]: 8 nM; GI50 [2, 15]: 15 nM; GI50 [2, 16]: 14 nM; GI50 [2, 17]: 3.2 nM; GI50 (PC-9): 46 nM |
| CN1CCC2(CCN(c3ccc4nc5n(c4c3)C34CCC(CN(CCOc6c(cnn6C)-c6cc(cn(C)c6=O)C(=O)N5)C3)C4)C2)C1 (single isomer, unassigned) [Example A81B] | – | 2.3 nM | – | – | – | – | – | – | – | 1.7 nM | 1.8 nM | 2.3 nM | 2.8 nM | 6.6 nM | 3.2 nM | 2.3 nM | 3.1 nM | – | 667 nM | 0.7 nM | GI50 [2, 12]: 2.8 nM; GI50 [2, 13]: 2.6 nM; GI50 [2, 14]: 2.7 nM; GI50 [2, 15]: 11 nM; GI50 [2, 16]: 12 nM; GI50 [2, 17]: 1.9 nM; GI50 (PC-9): 6.9 nM |
| Cn1ncc2c1OCCN(CC(F)(F)F)CCn1c(nc3ccccc31)NC(=O)c1cc-2c(=O)n(C)c1 [Example A1, 5,26-Dimethyl-10-(2,2,2-trifluoroethyl)-7-oxa-4,5,10,13,20,22,26-heptaazapentacyclo[22.3.1.0^{2,6}.0^{13,21}.0^{14,19}]octacosa-1(28),2(6),3,14,16,18,20,24-octaene-23,27-dione] | 3570 nM | 26 nM | 22 nM | 170 nM | 6.1 nM | 21 nM | 27 nM | 60 nM | 114 nM | 53 nM | 81 nM | 121 nM | 47 nM | 3550 nM | 197 nM | 120 nM | 120 nM | 68 nM | – | – | – |
| C[C@@H]1CCCOc2c(cnn2C)-c2cc(cn(C)c2=O)C(=O)Nc2nc3ccc4c(c3n2C1)CCN(C)C4 [Example A103, (11R)-5,11,18,30-tetramethyl-7-oxa-4,5,13,18,24,26,30-heptaazahexacyclo[26.3.1.0^{2,6}.0^{13,25}.0^{14,23}.0^{15,20}]dotriaconta-1(32),2(6),3,14,20,22,24,28-octaene-27,31-dione] | 1680 nM | 1.3 nM | 2.7 nM | 7 nM | 26 nM | 17 nM | 10 nM | 72 nM | 18 nM | 5.4 nM | 7.4 nM | 20 nM | 1.8 nM | > 5000 nM | 168 nM | 65 nM | 68 nM | 32 nM | – | – | – |
| C[C@@H]1CCCOc2c(cnn2C)-c2cc(cn(C)c2=O)C(=O)Nc2nc3ccc(N4CCN(CC(F)(F)F)CC4)cc3n2C1 [Example A53] | 639 nM | 13 nM | 7.4 nM | 27 nM | 28 nM | 34 nM | 35 nM | 51 nM | 49 nM | 7.2 nM | 15 nM | 21 nM | 12 nM | > 5000 nM | 462 nM | 70 nM | 135 nM | 51 nM | – | – | – |
